The values that follow come from publication PMC7827406, “Structure–Activity Relationship (SAR) Study of Spautin-1 to Entail the Discovery of Novel NEK4 Inhibitors” (International Journal of Molecular Sciences, 2021).

Like-named read-outs stand apart in the source and are kept apart here.

Common to all, as to assay: biochemical
Parameters in all cases: Eurofins KinaseProfiler full panel at Km ATP, residual kinase activity (%) relative to DMSO

One assay has as its target Blk(h) (Homo sapiens, UniProt P51451). An outline of the steps: (§1)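 Compounds screened at 10 µM in radiometric kinase activity assays at Km ATP, reported as remaining kinase activity (%). A KINOMEscan competition-binding screen at 10 µM measured DNA-tagged kinase retained on immobilized active-site ligand by qPCR.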
A further assay concerns the target T1, CK1α(h) (Homo sapiens, UniProt P48729).
T1 construct: gene CSNK1A1
The procedure, abridged: as §1

A further assay concerns the target Lyn(h) (Homo sapiens, UniProt P07948). An outline of the steps:
as §1

The target of assay [1] is T2, PI3 Kinase (p110b/p85b)(m) (Mus musculus, UniProt Q8BTI9).
T2 construct: gene Pik3cb
The procedure, abridged: as §1

For a further assay, the target named is T3, Plk4(h) (Homo sapiens, UniProt O00444).
T3 sequence (O00444 1-970): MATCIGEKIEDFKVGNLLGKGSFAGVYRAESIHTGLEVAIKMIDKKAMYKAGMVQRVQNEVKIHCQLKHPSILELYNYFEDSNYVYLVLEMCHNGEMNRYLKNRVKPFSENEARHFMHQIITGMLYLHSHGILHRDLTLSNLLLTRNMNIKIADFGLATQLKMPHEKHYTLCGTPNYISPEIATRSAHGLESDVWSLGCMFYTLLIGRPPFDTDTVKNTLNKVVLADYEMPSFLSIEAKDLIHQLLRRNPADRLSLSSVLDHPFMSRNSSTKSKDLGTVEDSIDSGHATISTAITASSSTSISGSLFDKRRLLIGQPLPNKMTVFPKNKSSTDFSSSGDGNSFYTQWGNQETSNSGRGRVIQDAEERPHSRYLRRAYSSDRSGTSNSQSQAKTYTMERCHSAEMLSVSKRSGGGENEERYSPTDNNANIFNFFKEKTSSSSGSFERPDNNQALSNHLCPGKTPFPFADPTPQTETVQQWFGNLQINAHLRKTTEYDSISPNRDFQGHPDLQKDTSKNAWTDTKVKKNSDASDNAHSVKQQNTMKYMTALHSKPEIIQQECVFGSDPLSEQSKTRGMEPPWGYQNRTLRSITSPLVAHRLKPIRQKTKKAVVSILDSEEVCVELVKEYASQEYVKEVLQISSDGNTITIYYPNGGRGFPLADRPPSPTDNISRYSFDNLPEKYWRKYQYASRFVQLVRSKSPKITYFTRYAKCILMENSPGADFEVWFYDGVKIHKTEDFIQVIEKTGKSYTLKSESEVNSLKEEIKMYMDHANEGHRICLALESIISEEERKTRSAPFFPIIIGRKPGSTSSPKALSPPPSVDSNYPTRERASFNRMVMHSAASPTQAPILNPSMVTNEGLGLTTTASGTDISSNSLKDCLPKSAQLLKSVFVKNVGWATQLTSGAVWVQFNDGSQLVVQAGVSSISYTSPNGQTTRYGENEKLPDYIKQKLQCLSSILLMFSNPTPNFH
The procedure, abridged: as §1

In a further assay the target is T4, TSSK3(h) (Homo sapiens, UniProt Q96PN8).
T4 sequence (Q96PN8 1-268): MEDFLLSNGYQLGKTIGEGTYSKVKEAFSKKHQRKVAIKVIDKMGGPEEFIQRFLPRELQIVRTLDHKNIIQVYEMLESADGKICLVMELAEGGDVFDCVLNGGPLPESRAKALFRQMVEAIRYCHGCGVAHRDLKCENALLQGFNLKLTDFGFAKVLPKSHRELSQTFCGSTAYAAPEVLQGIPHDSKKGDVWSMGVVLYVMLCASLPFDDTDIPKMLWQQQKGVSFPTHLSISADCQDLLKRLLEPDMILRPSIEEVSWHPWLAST
The procedure, abridged:
as §1

A further assay concerns the target T5, ZIPK(h) (Homo sapiens, UniProt O43293).
T5 construct: gene DAPK3
The procedure, abridged:
as §1

Where [2] appears, read: read-out: Residual activity (%) 5at.
The mark [3] stands for this setting: read-out: Residual activity (%) 5ay.
[4] abbreviates: read-out: Residual activity (%) 5as.
Where [5] appears, read: read-out: Residual activity (%) Spautin-1 5aa.

T1 sequence (P48729 whole entry): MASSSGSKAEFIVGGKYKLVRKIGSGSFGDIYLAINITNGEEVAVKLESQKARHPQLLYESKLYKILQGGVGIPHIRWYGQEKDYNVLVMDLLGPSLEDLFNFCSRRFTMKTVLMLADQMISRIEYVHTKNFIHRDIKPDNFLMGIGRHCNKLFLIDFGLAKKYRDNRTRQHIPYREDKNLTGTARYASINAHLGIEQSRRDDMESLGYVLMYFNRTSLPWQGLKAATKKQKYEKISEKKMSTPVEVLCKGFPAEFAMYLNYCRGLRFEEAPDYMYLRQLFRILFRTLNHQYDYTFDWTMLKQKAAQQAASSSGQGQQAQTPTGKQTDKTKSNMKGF
Sequence of Blk(h) (P51451 whole entry): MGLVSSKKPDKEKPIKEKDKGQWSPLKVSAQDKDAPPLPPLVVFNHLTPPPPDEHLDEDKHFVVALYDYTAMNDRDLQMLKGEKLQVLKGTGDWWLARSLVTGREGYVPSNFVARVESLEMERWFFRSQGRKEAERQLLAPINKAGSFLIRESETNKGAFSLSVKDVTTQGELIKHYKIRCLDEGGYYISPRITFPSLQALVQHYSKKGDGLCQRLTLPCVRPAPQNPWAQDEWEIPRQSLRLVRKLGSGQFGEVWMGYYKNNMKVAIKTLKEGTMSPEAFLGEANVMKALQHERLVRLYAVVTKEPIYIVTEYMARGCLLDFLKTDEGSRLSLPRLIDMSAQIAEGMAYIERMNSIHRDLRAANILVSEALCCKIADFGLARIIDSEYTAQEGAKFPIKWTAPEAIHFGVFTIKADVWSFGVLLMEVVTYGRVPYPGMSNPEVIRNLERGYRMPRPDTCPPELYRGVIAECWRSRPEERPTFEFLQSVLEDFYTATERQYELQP
T5 sequence (O43293 whole entry): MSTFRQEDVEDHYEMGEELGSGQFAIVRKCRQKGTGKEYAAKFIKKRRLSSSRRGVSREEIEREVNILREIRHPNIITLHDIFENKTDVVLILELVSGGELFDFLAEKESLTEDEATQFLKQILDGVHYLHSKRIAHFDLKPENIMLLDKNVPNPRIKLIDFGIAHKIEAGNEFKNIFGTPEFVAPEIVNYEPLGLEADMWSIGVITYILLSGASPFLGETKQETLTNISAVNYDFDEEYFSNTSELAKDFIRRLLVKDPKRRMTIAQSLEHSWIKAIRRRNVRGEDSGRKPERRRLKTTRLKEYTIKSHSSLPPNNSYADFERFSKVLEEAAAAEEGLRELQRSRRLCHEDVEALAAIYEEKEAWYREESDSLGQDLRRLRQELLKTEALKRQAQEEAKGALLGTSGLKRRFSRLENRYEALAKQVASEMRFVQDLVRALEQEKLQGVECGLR
Sequence of Lyn(h) (P07948 whole entry): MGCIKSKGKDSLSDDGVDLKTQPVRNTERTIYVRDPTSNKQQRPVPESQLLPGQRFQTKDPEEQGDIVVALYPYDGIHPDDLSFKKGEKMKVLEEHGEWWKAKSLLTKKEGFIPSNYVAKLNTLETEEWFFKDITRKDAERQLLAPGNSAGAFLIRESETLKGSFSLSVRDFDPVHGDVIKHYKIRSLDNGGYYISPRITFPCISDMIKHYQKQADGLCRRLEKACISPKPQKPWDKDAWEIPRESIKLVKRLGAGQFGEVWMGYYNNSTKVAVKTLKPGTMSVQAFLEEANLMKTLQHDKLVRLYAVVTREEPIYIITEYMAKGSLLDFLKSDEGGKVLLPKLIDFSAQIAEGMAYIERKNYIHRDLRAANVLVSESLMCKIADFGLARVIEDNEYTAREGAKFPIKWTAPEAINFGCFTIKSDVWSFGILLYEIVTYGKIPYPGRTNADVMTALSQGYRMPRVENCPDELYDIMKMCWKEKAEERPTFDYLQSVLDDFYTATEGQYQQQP
T2 sequence (Q8BTI9 whole entry): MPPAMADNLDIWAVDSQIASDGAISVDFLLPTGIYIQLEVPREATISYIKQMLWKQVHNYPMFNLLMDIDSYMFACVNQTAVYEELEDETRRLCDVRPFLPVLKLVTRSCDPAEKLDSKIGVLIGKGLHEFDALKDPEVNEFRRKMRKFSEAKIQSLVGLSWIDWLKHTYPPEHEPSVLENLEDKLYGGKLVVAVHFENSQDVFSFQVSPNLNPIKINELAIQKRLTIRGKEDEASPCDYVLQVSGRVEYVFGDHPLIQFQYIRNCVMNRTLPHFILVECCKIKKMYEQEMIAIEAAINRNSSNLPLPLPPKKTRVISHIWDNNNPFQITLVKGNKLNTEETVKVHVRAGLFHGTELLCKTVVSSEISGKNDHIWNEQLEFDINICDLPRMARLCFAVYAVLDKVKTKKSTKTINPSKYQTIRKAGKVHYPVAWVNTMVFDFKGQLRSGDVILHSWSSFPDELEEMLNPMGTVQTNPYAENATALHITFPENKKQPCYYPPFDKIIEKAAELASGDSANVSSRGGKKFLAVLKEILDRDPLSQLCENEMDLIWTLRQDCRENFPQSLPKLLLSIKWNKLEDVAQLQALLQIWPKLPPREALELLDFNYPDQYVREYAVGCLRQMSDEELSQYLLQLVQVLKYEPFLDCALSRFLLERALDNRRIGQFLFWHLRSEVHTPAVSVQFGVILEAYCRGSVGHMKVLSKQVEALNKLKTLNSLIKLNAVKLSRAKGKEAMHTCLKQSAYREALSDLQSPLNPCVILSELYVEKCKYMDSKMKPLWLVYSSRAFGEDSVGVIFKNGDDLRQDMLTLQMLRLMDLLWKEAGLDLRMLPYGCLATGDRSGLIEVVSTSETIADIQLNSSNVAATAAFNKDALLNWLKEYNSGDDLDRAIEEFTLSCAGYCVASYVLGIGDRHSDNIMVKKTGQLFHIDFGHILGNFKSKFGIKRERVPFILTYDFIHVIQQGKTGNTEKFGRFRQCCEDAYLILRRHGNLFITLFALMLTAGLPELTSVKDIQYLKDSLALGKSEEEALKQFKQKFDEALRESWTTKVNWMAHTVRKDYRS
T2 sequence (O08908 whole entry partner): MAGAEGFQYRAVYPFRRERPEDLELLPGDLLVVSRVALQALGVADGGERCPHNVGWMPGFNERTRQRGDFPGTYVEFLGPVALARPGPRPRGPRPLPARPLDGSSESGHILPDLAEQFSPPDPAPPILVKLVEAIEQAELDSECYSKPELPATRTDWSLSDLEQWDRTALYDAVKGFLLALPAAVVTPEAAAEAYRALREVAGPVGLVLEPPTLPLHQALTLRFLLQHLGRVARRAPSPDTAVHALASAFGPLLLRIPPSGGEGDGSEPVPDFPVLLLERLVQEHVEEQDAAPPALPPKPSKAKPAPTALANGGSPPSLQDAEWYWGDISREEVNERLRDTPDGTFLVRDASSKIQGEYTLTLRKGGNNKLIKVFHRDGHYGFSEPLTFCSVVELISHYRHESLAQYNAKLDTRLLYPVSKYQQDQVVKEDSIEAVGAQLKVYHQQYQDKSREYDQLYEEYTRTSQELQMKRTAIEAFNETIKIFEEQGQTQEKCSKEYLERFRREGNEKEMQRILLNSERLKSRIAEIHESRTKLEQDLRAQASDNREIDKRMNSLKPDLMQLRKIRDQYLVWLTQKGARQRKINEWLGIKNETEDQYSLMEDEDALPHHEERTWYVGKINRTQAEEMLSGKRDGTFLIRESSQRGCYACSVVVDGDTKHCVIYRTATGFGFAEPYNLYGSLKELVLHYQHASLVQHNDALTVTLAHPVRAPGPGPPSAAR

On to `Fc1ccc2ncnc(NCCc3ccc(Cl)cc3)c2c1` [5at, N-[2-(4-Chlorophenyl)Ethyl]-6-Fluoro-4-Quinazolinamine], for which the remaining activity at 10 µM is 91% at Blk(h) (setting [2]); 89% at CK1α(h) (setting [2]); 91% at Lyn(h) (setting [2]); 87% in assay [1] (setting [2]); 78% on Plk4(h) (setting [2]); 95% on TSSK3(h) (setting [2]). On ZIPK(h) (setting [2]), the remaining activity at 10 µM turned out to be 109%.

For `COc1ccc2ncnc(Nc3cccc(F)c3)c2c1` [5ay, N-(3-Fluorophenyl)-6-Methoxy-4-Quinazolinamine], the remaining activity at 10 µM on Blk(h) (setting [3]) was determined as 85%; on CK1α(h) (setting [3]), 100%; at Lyn(h) (setting [3]), 80%; in assay [1] (setting [3]), 89%; at Plk4(h) (setting [3]) it was 87%; at TSSK3(h) (setting [3]) it was 104%. Further, at ZIPK(h) (setting [3]), the remaining activity at 10 µM amounted to 108%.

`Fc1ccc(CCNc2ncnc3ccc(F)cc23)cc1` [5as, 6-Fluoro-N-[2-(4-Fluorophenyl)Ethyl]-4-Quinazolinamine]: the remaining activity at 10 µM came out at 100% on Blk(h) (setting [4]); 98% at CK1α(h) (setting [4]); 89% on Lyn(h) (setting [4]); 86% in assay [1] (setting [4]); 80% at Plk4(h) (setting [4]); 97% at TSSK3(h) (setting [4]). On ZIPK(h) (setting [4]), the remaining activity at 10 µM stood at 103%.

For the compound `Fc1ccc(CNc2ncnc3ccc(F)cc23)cc1` [5aa, 6-Fluoro-N-(4-fluorobenzyl)-4-Quinazolinamine], the remaining activity at 10 µM on Blk(h) (setting [5]) is 97%; at CK1α(h) (setting [5]) it was 76%; at Lyn(h) (setting [5]), 103%; in assay [1] (setting [5]), 97%; at Plk4(h) (setting [5]) it was 91%; on TSSK3(h) (setting [5]), 111%. In addition, the remaining activity at 10 µM on ZIPK(h) (setting [5]) was determined as 97%.
